In ChEMBL document CHEMBL5390258, “Recent Progress and Prospects of Small Molecules for NLRP3 Inflammasome Inhibition” (J Med Chem, 2023):
pIC50: −log10 of the molar value.

Tests used:
[1] = Cytotoxicity against human THP-1 cells assessed as reduction in cell viability measured after 72 hrs by MTT assay; assay type: toxicity, cell-based; settings: read-out: TC50
[2] = system: THP-1; assay: Induction of pyroptosis in PMA-differentiated human THP-1 cells at 10 uM in presence of ATP by CytoTox 96 nonradioactive assay relative to control; assay type: functional
[3] = target: NACHT, LRR and PYD domains-containing protein 3 (Homo sapiens, UniProt Q96P20); assay: Inhibition of NLRP3 in human PBMC cells assessed as reduction in IL-1beta production; assay type: cell-based
Chain of NACHT, LRR and PYD domains-containing protein 3 (Q96P20 whole entry, the tested form may be a part): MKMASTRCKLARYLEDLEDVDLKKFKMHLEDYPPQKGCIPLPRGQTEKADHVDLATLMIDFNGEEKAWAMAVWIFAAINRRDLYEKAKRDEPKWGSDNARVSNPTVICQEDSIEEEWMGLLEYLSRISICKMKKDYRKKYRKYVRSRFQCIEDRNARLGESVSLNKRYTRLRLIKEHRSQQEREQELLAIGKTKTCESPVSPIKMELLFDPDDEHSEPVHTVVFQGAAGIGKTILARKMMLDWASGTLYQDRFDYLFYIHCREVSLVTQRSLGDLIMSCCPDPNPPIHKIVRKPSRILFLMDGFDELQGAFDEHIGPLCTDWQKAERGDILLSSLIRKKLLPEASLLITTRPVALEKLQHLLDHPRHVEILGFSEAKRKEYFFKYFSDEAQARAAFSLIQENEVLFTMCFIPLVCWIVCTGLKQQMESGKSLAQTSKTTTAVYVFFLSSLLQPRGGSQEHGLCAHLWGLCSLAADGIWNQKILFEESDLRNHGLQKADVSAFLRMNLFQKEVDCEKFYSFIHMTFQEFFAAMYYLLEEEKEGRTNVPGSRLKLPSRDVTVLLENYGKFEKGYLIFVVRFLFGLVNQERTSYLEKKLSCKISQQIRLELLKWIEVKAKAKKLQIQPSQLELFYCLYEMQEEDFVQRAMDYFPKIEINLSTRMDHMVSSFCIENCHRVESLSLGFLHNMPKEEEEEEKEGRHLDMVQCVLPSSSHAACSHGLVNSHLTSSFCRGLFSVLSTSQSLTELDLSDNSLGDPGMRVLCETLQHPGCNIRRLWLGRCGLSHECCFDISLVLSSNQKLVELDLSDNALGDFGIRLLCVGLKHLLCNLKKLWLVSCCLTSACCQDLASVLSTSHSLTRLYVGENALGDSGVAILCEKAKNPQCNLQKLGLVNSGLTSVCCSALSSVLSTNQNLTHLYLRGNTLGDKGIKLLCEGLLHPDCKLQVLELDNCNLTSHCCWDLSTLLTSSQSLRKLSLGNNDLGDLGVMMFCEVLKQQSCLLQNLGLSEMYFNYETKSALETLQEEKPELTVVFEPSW

| SMILES | CC50 at 72 h [1] [µM] | Activity [2] [%] | pIC50 [3] |
| --- | --- | --- | --- |
| C=C(Cc1ccccc1Cl)C(=O)NCCc1ccc(S(N)(=O)=O)cc1 | > 100 | 80.9 |  |
| C=C1C(=O)[C@]23[C@H](O)[C@@H]1CC[C@H]2[C@@]12CO[C@@]3(O)[C@@H](O)[C@@H]1C(C)(C)CC[C@@H]2O |  |  | 5.29 |
